# From patent US4465668A, “Method for improving intestinal absorption of cephalosporin derivatives” (Asahi Kasei Kogyo Kabushiki Kaisha, priority 1981, dated 1984)
# Experiment: Absorption test: blood concentration after oral administration to rats
# Conditions: rat; for Blood Concentration of Compound (VI) / Blood Concentration of Compound (V) / Blood Concentration of Compound (VIII) / Blood Concentration of Compound (IX) / Blood Concentration of Compound (IV) / Blood Concentration of Compound (VII) / Blood Concentration of Compound (III): suspended in 0.7% CMC; for Blood Concentration of Compound (VI) / Blood Concentration of Compound (V) / Blood Concentration of Compound (VIII) / Blood Concentration of Compound (IX) / Blood Concentration of Compound (IV) / Blood Concentration of Compound (II) / Blood Concentration of Compound (VII) / Blood Concentration of Compound (III): group average; for Blood concentration of Compound (I): suspended in 0.7% CMC aqueous solution, group average (5 animals); for Blood Concentration of Compound (II): dissolved in buffer aqueous solution pH 7
# Description: The absorption test of the compounds were measured by the following methods.
# Male Wistar rats weighing 180-250 g were fed with only water overnight. The next day the rats were orally administered with 50 mg/kg of a test compound which was suspended in a 0.7% CMC aqueous solution. The concentration of the compound in blood of the tested animals (one group consisting of 5 animals) was measured 0.5, 1, 2 and 4 hours after the administration by Bioassay method by using Bacillus subtilis ATCC 6633 strain as an indicator bacteria. In the measurement, an ordinary culture medium was employed, and the preparation of the standard solution and other method were carried out in according to Japanese Antibiotical Pharmaceutical Standards. Further, the concentration of the compound in blood was also measured by high performance liquid chromatography. The blood concentration shown in the examples was an average value of each animal group.
# The absorption test of 7-[2-(2-thienyl)-acetoamido]-3-[2-(L-prolyl-L-lysylaminomethyl-1,3,4-thiadiazolyl)-thiomethyl]-3-cephem-4-carboxylic acid formic acid salt was carried out by orally administering the salt which was dissolved in a buffer aqueous solution having the pH of 7. The results are as follows:
# The same procedures as described in Example 8 were repeated except that other oligopeptides were employed instead of the α-tert-butyloxycarbonyl-L-prolyl-ε-tert-butyloxycarbonyl-L-lysine. The absorption test of these compounds thus obtained was carried out in the same manner as described in Example 8.
structure (smiles),measurement,setting,value
"CO/N=C(\C(=O)N[C@@H]1C(=O)N2C(C(=O)O)=C(CSc3nnnn3C)CS[C@H]12)c1csc(NC(=O)[C@H](CCCCN)NC(=O)[C@@H](N)CC(C)C)n1.O=CO [Example 25, 7β-[2-(2-L-leucyl-L-lysylamidothiazol-4-yl)-(Z)-2-methoxyiminoacetoamido]-3-[(1-methyl-1H-tetrazol-5-yl)-thiomethyl]-3-cephem-4-carboxylic acid formic acid salt]",Blood Concentration of Compound (VI),0.5 hr after oral 50 mg/kg,2110 ng/mL
same,Blood Concentration of Compound (VI),1 hr after oral 50 mg/kg,1670 ng/mL
same,Blood Concentration of Compound (VI),2 hrs after oral 50 mg/kg,1100 ng/mL
same,Blood Concentration of Compound (VI),4 hrs after oral 50 mg/kg,< 100 ng/mL
"CO/N=C(\C(=O)N[C@@H]1C(=O)N2C(C(=O)O)=C(COC(C)=O)CS[C@H]12)c1csc(NC(=O)[C@H](Cc2ccccc2)NC(=O)[C@@H](N)CC(C)C)n1.O=CO [Example 22, 7β-[2-(2-L-leucyl-L-phenylalanylamidothiazol-4-yl)-(Z)-2-methoxyiminoacetoamido]cephalosporanic acid formic acid salt]",Blood Concentration of Compound (V),0.5 hr after oral 50 mg/kg,1690 ng/mL
same,Blood Concentration of Compound (V),1 hr after oral 50 mg/kg,1830 ng/mL
same,Blood Concentration of Compound (V),2 hrs after oral 50 mg/kg,1530 ng/mL
same,Blood Concentration of Compound (V),4 hrs after oral 50 mg/kg,1030 ng/mL
"CC(C)C[C@H](N)C(=O)N[C@@H](Cc1ccccc1)C(=O)OC(C(=O)NC1C(=O)N2C(C(=O)O)=C(CSc3nnnn3C)CS[C@H]12)c1ccccc1.O=CO (stereo partly drawn) [Example 1, 7-D-(O-L-leucyl-L-phenylalanyl)-mandelamido-3-(1-methyl-1H-tetrazol-5-yl-thiomethyl)-3-cephem-4-carboxylic acid formic acid salt]",Blood concentration of Compound (I),0.5 hr after oral 50 mg/kg,4510 ng/mL
same,Blood concentration of Compound (I),1 hr after oral 50 mg/kg,3700 ng/mL
same,Blood concentration of Compound (I),2 hrs after oral 50 mg/kg,1930 ng/mL
same,Blood concentration of Compound (I),4 hrs after oral 50 mg/kg,830 ng/mL
"COC1(NC(=O)CSCC#N)C(=O)N2C(C(=O)OCOC(=O)[C@H](CCCCN)NC(=O)[C@@H](N)CC(C)C)=C(CSc3nnnn3C)CSC21.Cl (stereo partly drawn) [Example 29, 7β-[(cyanomethyl)thio]acetoamido-7α-methoxy-3-[(1-methyl-1H-tetrazol-5-yl)thio]methyl-3-cephem-4-carboxylic acid L-leucyl-L-lysyloxymethyl ester hydrochloric acid salt]",Blood Concentration of Compound (VIII),0.5 hr after oral 50 mg/kg,3140 ng/mL
same,Blood Concentration of Compound (VIII),1 hr after oral 50 mg/kg,2370 ng/mL
same,Blood Concentration of Compound (VIII),2 hrs after oral 50 mg/kg,1040 ng/mL
same,Blood Concentration of Compound (VIII),4 hrs after oral 50 mg/kg,320 ng/mL
"Cc1nnc(SCC2=C(C(=O)OCOC(=O)[C@H](CCCCN)NC(=O)[C@@H](N)CC(C)C)N3C(=O)C(NC(=O)Cn4cnnn4)C3SC2)s1.Cl (stereo partly drawn) [Example 35, 7-[1-(1H)-tetrazolylacetamido]-3-[2-(5-methyl-1,3,4-thiazolyl)-thiomethyl]-3-cephem-4-carboxylic acid L-leucyl-L-lysyloxymethyl ester hydrochloric acid salt]",Blood Concentration of Compound (IX),0.5 hr after oral 50 mg/kg,5640 ng/mL
same,Blood Concentration of Compound (IX),1 hr after oral 50 mg/kg,3840 ng/mL
same,Blood Concentration of Compound (IX),2 hrs after oral 50 mg/kg,1870 ng/mL
same,Blood Concentration of Compound (IX),4 hrs after oral 50 mg/kg,740 ng/mL
"CC(=O)OCC1=C(C(=O)O)N2C(=O)[C@@H](NC(=O)CSCCNC(=O)[C@H](CC(C)C)NC(=O)[C@@H](N)Cc3ccccc3)[C@H]2SC1.O=C(O)C(F)(F)F [Example 19, 7β-(2-L-phenylalanyl-L-leucylamidoethylthioacetoamido)-3-acetoxymethyl-3-cephem-4-carboxylic acid trifluoroacetic acid salt]",Blood Concentration of Compound (IV),0.5 hr after oral 50 mg/kg,1070 ng/mL
same,Blood Concentration of Compound (IV),1 hr after oral 50 mg/kg,210 ng/mL
same,Blood Concentration of Compound (IV),2 hrs after oral 50 mg/kg,90 ng/mL
same,Blood Concentration of Compound (IV),4 hrs after oral 50 mg/kg,< 10 ng/mL
"NCCCC[C@H](NC(=O)[C@@H]1CCCN1)C(=O)NCc1nnc(SCC2=C(C(=O)O)N3C(=O)C(NC(=O)Cc4cccs4)C3SC2)s1.O=CO (stereo partly drawn) [Example 8, 7-[2-(2-thienyl)-acetoamido]-3-[2-(L-prolyl-L-lysylaminomethyl-1,3,4-thiadiazolyl)-thiomethyl]-3-cephem-4-carboxylic acid formic acid salt]",Blood Concentration of Compound (II),0.5 hr after oral 50 mg/kg,2140 ng/mL
same,Blood Concentration of Compound (II),1 hr after oral 50 mg/kg,1770 ng/mL
same,Blood Concentration of Compound (II),2 hrs after oral 50 mg/kg,1040 ng/mL
same,Blood Concentration of Compound (II),4 hrs after oral 50 mg/kg,70 ng/mL
"CO/N=C(\C(=O)N[C@@H]1C(=O)N2C(C(=O)O)=CCS[C@H]12)c1csc(NC(=O)[C@H](Cc2ccccc2)NC(=O)[C@@H](N)CCSC)n1.O=CO [Example 27, 7β-[2-(2-L-methionyl-L-phenylalanylamidothiazol-4-yl)-(Z)-2-methoxyiminoacetamido]-3-cephem-4-carboxylic acid formic acid salt]",Blood Concentration of Compound (VII),0.5 hr after oral 50 mg/kg,2130 ng/mL
same,Blood Concentration of Compound (VII),1 hr after oral 50 mg/kg,1840 ng/mL
same,Blood Concentration of Compound (VII),2 hrs after oral 50 mg/kg,1000 ng/mL
same,Blood Concentration of Compound (VII),4 hrs after oral 50 mg/kg,210 ng/mL
"Cc1nnc(SCC2=C(C(=O)OCOC(=O)[C@H](CCCCN)NC(=O)[C@@H](N)CC(C)C)N3C(=O)C(NC(=O)Cc4csc(N)n4)C3SC2)s1.Cl (stereo partly drawn) [Example 15, 7-[2-(2-amino-4-thiazolyl)acetoamido-3-(5-methyl-1,3,4-thiadiazolyl)thiomethyl]-3-cephem-4-carboxylic acid L-leucyl-L-lysyloxymethyl ester hydrochloric acid salt]",Blood Concentration of Compound (III),0.5 hr after oral 50 mg/kg,1960 ng/mL
same,Blood Concentration of Compound (III),1 hr after oral 50 mg/kg,2370 ng/mL
same,Blood Concentration of Compound (III),2 hrs after oral 50 mg/kg,1030 ng/mL
same,Blood Concentration of Compound (III),4 hrs after oral 50 mg/kg,240 ng/mL
"Cn1nnnc1SCC1=C(C(=O)O)N2C(=O)C(NC(=O)[C@H](OC(=O)[C@@H](N)Cc3ccccc3)c3ccccc3)C2SC1.O=CO (stereo partly drawn) [compound 1, 7-D-(O-L-phenylalanyl)-mandelamido-3-(1-methyl-1H-tetrazol-5-yl-thiomethyl)-3-cephem-4-carboxylic acid formic acid salt, reference compound]",Blood concentration of Compound (I),0.5 hr after oral 50 mg/kg,210 ng/mL
same,Blood concentration of Compound (I),1 hr after oral 50 mg/kg,230 ng/mL
same,Blood concentration of Compound (I),2 hrs after oral 50 mg/kg,80 ng/mL
same,Blood concentration of Compound (I),4 hrs after oral 50 mg/kg,20 ng/mL
